Test results taken from patent publication US9777001B2 (priority 2014, dated 2017).
Structures can show the parent of a compound that is named as a salt.

Target: human plasma kallikrein (Homo sapiens, UniProt P03952)
Assay: biochemical
Settings: purified human plasma kallikrein, substrate S-2302, sodium phosphate buffer pH 7.5

human plasma kallikrein, sequence (P03952 391-638 limits assumed): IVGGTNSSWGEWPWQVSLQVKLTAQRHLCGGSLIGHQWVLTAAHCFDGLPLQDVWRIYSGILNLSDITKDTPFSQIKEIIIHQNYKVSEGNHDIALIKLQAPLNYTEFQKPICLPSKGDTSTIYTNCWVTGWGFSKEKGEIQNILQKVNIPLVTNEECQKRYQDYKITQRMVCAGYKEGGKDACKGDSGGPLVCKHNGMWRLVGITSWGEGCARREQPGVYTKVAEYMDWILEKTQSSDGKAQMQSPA
human plasma kallikrein, sequence (P03952 20-390 partner limits assumed): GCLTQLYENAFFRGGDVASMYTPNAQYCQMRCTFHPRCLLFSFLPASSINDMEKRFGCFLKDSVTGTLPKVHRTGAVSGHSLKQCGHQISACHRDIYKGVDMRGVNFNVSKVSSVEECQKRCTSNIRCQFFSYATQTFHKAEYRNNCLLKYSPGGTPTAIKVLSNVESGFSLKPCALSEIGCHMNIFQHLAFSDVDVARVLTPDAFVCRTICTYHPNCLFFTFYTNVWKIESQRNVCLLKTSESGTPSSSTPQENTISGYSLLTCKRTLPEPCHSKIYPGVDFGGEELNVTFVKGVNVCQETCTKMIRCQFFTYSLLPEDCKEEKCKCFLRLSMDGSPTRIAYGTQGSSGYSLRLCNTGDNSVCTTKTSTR

SMILES	Ki [nM]
COC(=O)Nc1ccc2c(c1)CCCCCC[C@H](n1cnc(-c3cc(Cl)ccc3-n3cnnn3)cc1=O)c1nc-2c[nH]1 [Example 132, methyl N-[(14S)-14-{4-[5-chloro-2-(1H-1,2,3,4-tetrazol-1-yl)phenyl]-6-oxo-1,6-dihydropyrimidin-1-yl}-16,18-diazatricyclo[13.2.1.0^2,7]octadeca-1(17),2,4,6,15(18)-pentaen-5-yl]carbamate trifluoroacetate]	340
C[C@@H]1CCC[C@H](n2cnc(-c3cc(Cl)ccc3-n3cc(C(F)(F)F)nn3)cc2=O)c2cc(ccn2)-c2cc(F)ccc2NC1=O [Example 135, (10R,14S)-14-(4-{5-chloro-2-[4-(trifluoromethyl)-1H-1,2,3-triazol-1-yl]phenyl}-6-oxo-1,6-dihydropyrimidin-1-yl)-4-fluoro-10-methyl-8,16-diazatricyclo [13.3.1.0^2,7]nonadeca-1(19),2(7),3,5,15,17-hexaen-9-one trifluoroacetate]	29
CCOc1cn(-c2ccc(Cl)c(F)c2-c2cc(=O)n([C@H]3CCC[C@@H](C)C(=O)Nc4ccc(F)cc4-c4ccnc3c4)cn2)nn1 [Example 136, (10R,14S)-14-{4-[3-chloro-6-(4-ethoxy-1H-1,2,3-triazol-1-yl)-2-fluorophenyl]-6-oxo-1,6-dihydropyrimidin-1-yl}-4-fluoro-10-methyl-8,16-diazatricyclo [13.3.1.0^2,7]nonadeca-1(19),2(7),3,5,15,17-hexaen-9-one trifluoroacetate]	76

Other lines, results leading:

Ki [nM]	SMILES
12	Cc1cn(-c2ccc(Cl)c(F)c2-c2cc(=O)n([C@H]3CCC[C@@H](C)C(=O)Nc4ccc(F)cc4-c4ccnc3c4)cn2)nn1 [Example 137, (10R,14S)-14-{4-[3-chloro-2-fluoro-6-(4-methyl-1H-1,2,3-triazol-1-yl)phenyl]-6-oxo-1,6-dihydropyrimidin-1-yl}-4-fluoro-10-methyl-8,16-diazatricyclo[13.3.1.0^2,7]nonadeca-1(19),2(7),3,5,15,17-hexaen-9-one]
510	C[C@@H]1CCC[C@H](n2cnc(-c3cc(Cl)ccc3-n3cc(O)nn3)cc2=O)c2cc(ccn2)-c2cc(F)ccc2NC1=O [Example 139, (10R,14S)-14-{4-[5-chloro-2-(4-hydroxy-1H-1,2,3-triazol-1-yl)phenyl]-6-oxo-1,6-dihydropyrimidin-1-yl}-4-fluoro-10-methyl-8,16-diazatricyclo[13.3.1.0^2,7]nonadeca-1(19),2(7),3,5,15,17-hexaen-9-one trifluoroacetate]
580	C[C@@H]1CCC[C@H](n2cnc(-c3cc(Cl)ccc3C(F)(F)F)cc2=O)c2cc(ccn2)-c2cc(F)ccc2NC1=O [Example 141, (10R,14S)-14-{4-[5-chloro-2-(trifluoromethyl)phenyl]-6-oxo-1,6dihydropyrimidin-1-yl}-4-fluoro-10-methyl-8,16-diazatricyclo[13.3.1.0^2,7]nonadeca-1(19),2(7),3,5,15,17-hexaen-9-one trifluoroacetate]
210	CCOc1cn(-c2ccc(Cl)cc2-c2cc(=O)n([C@H]3CCC[C@@H](C)C(=O)Nc4ccc(F)cc4-c4ccnc3c4)cn2)nn1 [Example 144, (10R,14S)-14-{4-[5-chloro-2-(4-ethoxy-1H-1,2,3-triazol-1-yl)phenyl]-6-oxo-1,6-dihydropyrimidin-1-yl}-4-fluoro-10-methyl-8,16-diazatricyclo[13.3.1.0^2,7]nonadeca-1(19),2(7),3,5,15,17-hexaen-9-one trifluoroacetate]
3800	C[C@@H]1CCC[C@H](n2cnc(-c3cc(Cl)ccc3OC(F)(F)F)cc2=O)c2cc(ccn2)-c2cc(F)ccc2NC1=O [Example 146, (10R,14S)-14-{4-[5-chloro-2-(trifluoromethoxy)phenyl]-6-oxo-1,6-dihydropyrimidin-1-yl}-4-fluoro-10-methyl-8,16-diazatricyclo[13.3.1.0^2,7]nonadeca-1(19),2(7),3,5,15,17-hexaen-9-one trifluoroacetate]
